From patent US9493432B2, “Cyclopentylbenzamide derivatives and their use for the treatment of psychotic and cognitive disorders” (Takeda Pharmaceutical Company Limited, priority 2013, dated 2016)
pIC50: −log10 of the molar value.

What was measured:
human orexin receptor 1 = human orexin receptor 1 (Homo sapiens (Human), UniProt O43613); assay: Orexin antagonist activity, intracellular calcium FLIPR assay (orexin receptor 1); format: cell-based; conditions: RBL-2H3 cells stably expressing human orexin receptor 1; Ca2+ dye FLIPR; compound 15 minutes before orexin-A at approximately 80% maximal response; read-out: Human Orexin1R IC50
Procedure: (§1) Orexin antagonist activity was determined by measuring changes in intracellular calcium levels using a Ca^2+ sensitive fluorescent dye. The changes in fluorescent signal were monitored by Fluorescent Imaging Plate Reader (FLIPR™) technology available from Molecular Devices, LLC, U.S.A. Orexin mediated increases in intracellular Ca^2+ concentration were readily detected upon activation with orexin-A. Twenty-four hours prior to the assay, RBL-2H3 cells stably expressing either human orexin receptor 1 or human orexin receptor 2 were seeded in cell culture medium in black, clear-bottom 384-well plates (commercially available from Corning Inc., U.S.A.) and grown overnight at 37° C., 5% CO2. On the day of the assay, cell culture media was removed and cells were loaded with Calcium 5 Dye (commercially sold by Molecular Devices, LLC, U.S.A.) for 1 hour at 37° C., 5% CO2. Test compounds (at 10 point half log concentration response curves from 10 μM) were added to cells for 15 minutes prior to the addition of orexin-A to all wells, to achieve a final concentration that produces approximately an 80% maximal response. The IC50 values were determined from ten point concentration response curves. Curves were generated using the average of two wells for each data point.

human orexin receptor 2 = human orexin receptor 2 (Homo sapiens (Human), UniProt O43614); assay: Orexin antagonist activity, intracellular calcium FLIPR assay (orexin receptor 2); format: cell-based; conditions: RBL-2H3 cells stably expressing human orexin receptor 2; Ca2+ dye FLIPR; compound 15 minutes before orexin-A at approximately 80% maximal response; read-out: Human Orexin2R IC50
Procedure: as §1

human orexin receptor 2, sequence (O43614 whole entry): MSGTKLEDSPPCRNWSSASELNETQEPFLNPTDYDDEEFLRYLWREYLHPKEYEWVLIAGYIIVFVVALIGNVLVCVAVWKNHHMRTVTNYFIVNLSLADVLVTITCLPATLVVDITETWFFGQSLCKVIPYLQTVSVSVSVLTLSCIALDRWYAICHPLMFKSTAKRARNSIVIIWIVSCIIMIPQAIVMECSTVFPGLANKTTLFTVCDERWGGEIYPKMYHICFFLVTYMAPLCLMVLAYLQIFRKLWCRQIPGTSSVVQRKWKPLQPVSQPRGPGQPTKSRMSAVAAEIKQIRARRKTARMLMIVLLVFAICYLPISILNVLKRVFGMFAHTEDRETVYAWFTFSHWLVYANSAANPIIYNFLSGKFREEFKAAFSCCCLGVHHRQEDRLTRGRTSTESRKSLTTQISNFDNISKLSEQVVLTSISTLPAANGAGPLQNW
human orexin receptor 1, sequence (O43613 whole entry): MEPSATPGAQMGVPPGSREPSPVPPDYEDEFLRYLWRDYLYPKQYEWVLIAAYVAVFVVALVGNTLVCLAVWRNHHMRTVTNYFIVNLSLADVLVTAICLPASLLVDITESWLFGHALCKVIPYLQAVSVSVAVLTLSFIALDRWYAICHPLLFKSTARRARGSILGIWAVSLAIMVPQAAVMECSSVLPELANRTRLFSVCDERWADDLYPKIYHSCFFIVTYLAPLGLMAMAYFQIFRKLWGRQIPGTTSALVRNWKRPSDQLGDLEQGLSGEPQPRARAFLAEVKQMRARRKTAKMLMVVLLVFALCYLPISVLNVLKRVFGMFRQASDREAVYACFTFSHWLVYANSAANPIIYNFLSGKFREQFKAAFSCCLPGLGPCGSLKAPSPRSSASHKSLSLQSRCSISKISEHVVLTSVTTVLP

Row | SMILES | pIC50 (human orexin receptor 1) | pIC50 (human orexin receptor 2)
1 | CCOC(=O)N1CC(NC(=O)c2c(OC)cccc2OC)C(Nc2nc3ccc(Cl)cc3s2)C1 (stereo not drawn) [Example 23, Ethyl cis-3-[(6-Chloro-1,3-benzothiazol-2-yl)amino]-4-[(2,6-dimethoxy-benzene)amido]pyrrolidine-1-carboxylate] | 7.19 | 6.21
2 | Cc1ccc(-n2nccn2)c(C(=O)NC2CCCC2Cc2ccc3ccccc3n2)c1 (stereo not shown) [Example 27, 5-Methyl-N-[2-(quinolin-2-ylmethyl)cyclopentyl]-2-(2H-1,2,3-triazol-2-yl)benzamide] | 7.28 | 5.07
3 | CCOc1ccc(C)cc1C(=O)NC1CCCC1Cc1ccc2ccccc2n1 (stereo not shown) [Example 28, 2-Ethoxy-5-methyl-N-[2-(quinolin-2-ylmethyl)cyclopentyl]-benzamide] | 6.85 | 5.72
4 | COc1cccc(OC)c1C(=O)NC1CCCC1Cc1ccc2ccccc2n1 (stereo not shown) [Example 29, 2,6-Dimethoxy-N-[2-(quinolin-2-ylmethyl)cyclopentyl]benzamide] | 6.26 | 5.54
5 | CCOc1cccc(OCC)c1C(=O)NC1CCCC1Cc1ccc2ccccc2n1 (stereo not shown) [Example 30, 2,6-Diethoxy-N-(2-(quinolin-2-ylmethyl)cyclopentyl)benzamide] | 6.49 | 6.43
6 | CCOc1ccc(C)cc1C(=O)NC1CCCC1Cc1ccc2ccccc2n1 (stereo not shown) [Example 31, 2-Ethoxy-5-methyl-N-(2-(quinolin-2-ylmethyl)cyclopentyl)-benzamide] | 7.04 | 5.48
7 | COc1cccc(OC)c1C(=O)NC1CCCC1Cc1nc2ccc(Cl)cc2s1 (stereo not shown) [Example 32, N-{2-[(6-Chloro-1,3-benzothiazol-2-yl)methyl]cyclopentyl}-2,6-dimethoxybenzamide] | 6.05 | 6.01
8 | O=C(N[C@H]1CCC[C@@H]1Nc1nc2ccc(F)cc2s1)c1ccccc1-n1ccnc1 [Example 43, N-[(1S,2S)-2-[(6-Fluoro-1,3-benzothiazol-2-yl)amino]cyclopentyl]-2-(1H-imidazol-1-yl)benzamide] | 7.41 | < 5.00
9 | O=C(N[C@H]1CCC[C@@H]1Nc1nc2ccc(F)cc2s1)c1ccccc1-n1cncn1 [Example 44, N-[(1S,2S)-2-[(6-Fluoro-1,3-benzothiazol-2-yl)amino]cyclopentyl]-2-(1H-1,2,4-triazol-1-yl)benzamide] | 7.29 | < 5.00
10 | COc1cccc(F)c1C(=O)N[C@H]1CCC[C@@H]1Nc1nc2ccc(F)cc2s1 [Example 46, 2-Fluoro-N-[(1S,2S)-2-[(6-fluoro-1,3-benzothiazol-2-yl)amino]cyclopentyl]-6-methoxybenzamide] | 6.96 | 5.20
11 | O=C(N[C@H]1CCC[C@@H]1Nc1nc2ccc(F)cc2s1)c1c(F)cccc1F [Example 47, 2,6-Difluoro-N-[(1S,2S)-2-[(6-fluoro-1,3-benzothiazol-2-yl)amino]-cyclopentyl]benzamide] | 6.82 | < 5.00
12 | O=C(N[C@H]1CCC[C@@H]1Nc1nc2ccc(F)cc2s1)c1ccccc1F [Example 48, 2-Fluoro-N-[(1S,2S)-2-[(6-fluoro-1,3-benzothiazol-2-yl)amino]cyclopentyl]-benzamide] | 6.80 | 5.43
13 | CCOc1ccccc1C(=O)N[C@H]1CCC[C@@H]1Nc1nc2ccc(F)cc2s1 [Example 49, 2-Ethoxy-N-[(1S,2S)-2-[(6-fluoro-1,3-benzothiazol-2-yl)amino]cyclopentyl]-benzamide] | 6.72 | 5.85
14 | COc1ccccc1C(=O)N[C@H]1CCC[C@@H]1Nc1nc2ccc(F)cc2s1 [Example 50, N-[(1S,2S)-2-[(6-Fluoro-1,3-benzothiazol-2-yl)amino]cyclopentyl]-2-methoxybenzamide] | 6.72 | 5.47
15 | COc1ccc(F)cc1C(=O)N[C@H]1CCC[C@@H]1Nc1nc2ccc(F)cc2s1 [Example 53, 5-Fluoro-N-[(1S,2S)-2-[(6-fluoro-1,3-benzothiazol-2-yl)amino]cyclopentyl]-2-methoxybenzamide] | 6.55 | 5.48
16 | COc1c(F)cccc1C(=O)N[C@H]1CCC[C@@H]1Nc1nc2ccc(F)cc2s1 [Example 54, 3-Fluoro-N-[(1S,2S)-2-[(6-fluoro-1,3-benzothiazol-2-yl)amino]cyclopentyl]-2-methoxybenzamide] | 6.51 | 5.46

Now those with a higher pIC50 (human orexin receptor 1), led by results:

Row | pIC50 (human orexin receptor 1) | pIC50 (human orexin receptor 2) | SMILES
17 | 7.64 | 5.07 | COc1cccc(OC)c1C(=O)NC1CN(C(=O)OCc2ccccc2)CC1Nc1nc2ccc(Cl)cc2s1 (stereo not drawn) [Example 22, Benzyl cis-3-[(6-chloro-1,3-benzothiazol-2-yl)amino]-4-[(2,6-dimethoxybenzene)amido]pyrrolidine-1-carboxylate]
18 | 7.80 | 5.68 | COc1ccc(OC)c(C(=O)N[C@H]2CCC[C@@H]2Nc2nc3ccc(F)cc3s2)c1 [Example 41, N-[(1S,2S)-2-[(6-Fluoro-1,3-benzothiazol-2-yl)amino]cyclopentyl]-2,5-dimethoxybenzamide]
19 | 7.82 | 5.48 | O=C(N[C@H]1CCC[C@@H]1Nc1nc2ccc(F)cc2s1)c1ccccc1-c1ncccn1 [Example 40, N-[(1S,2S)-2-[(6-Fluoro-1,3-benzothiazol-2-yl)amino]cyclopentyl]-2-(pyrimidin-2-yl)benzamide]
20 | 7.85 | 5.42 | Cc1noc(-c2ccccc2C(=O)N[C@H]2CCC[C@@H]2Nc2nc3ccc(F)cc3s2)n1 [Example 39, N-[(1S,2S)-2-[(6-Fluoro-1,3-benzothiazol-2-yl)amino]cyclopentyl]-2-(3-methyl-1,2,4-oxadiazol-5-yl)benzamide]
21 | 7.89 | < 5.00 | Cc1ccc(-n2ccnn2)c(C(=O)N[C@H]2CCC[C@@H]2Nc2nc3ccc(F)cc3s2)c1 [Example 38, N-[(1S,2S)-2-[(6-Fluoro-1,3-benzothiazol-2-yl)amino]cyclopentyl]-5-methyl-2-(1H-1,2,3-triazol-1-yl)benzamide]
22 | 7.96 | 5.46 | O=C(N[C@H]1CCC[C@@H]1Nc1nc2ccc(F)cc2s1)c1ccccc1Cl [Example 37, 2-Chloro-N-[(1S,2S)-2-[(6-fluoro-1,3-benzothiazol-2-yl)amino]cyclopentyl]benzamide]
23 | 7.96 | 5.17 | O=C(N[C@H]1CCC[C@@H]1Nc1nc2ccc(F)cc2s1)c1ccccc1-n1nccn1 [Example 59, N-[(1S,2S)-2-[(6-Fluoro-1,3-benzothiazol-2-yl)amino]cyclopentyl]-2-(2H-1,2,3-triazol-2-yl)benzamide]
24 | 8.08 | 5.27 | O=C(N[C@H]1CCC[C@@H]1Nc1nc2ccc(F)cc2s1)c1cc(F)ccc1-n1nccn1 [Example 36, 5-Fluoro-N-[(1S,2S)-2-[(6-fluoro-1,3-benzothiazol-2-yl)amino]cyclopentyl]-2-(2H-1,2,3-triazol-2-yl)benzamide]
25 | 8.17 | 5.37 | O=C(N[C@H]1CCC[C@@H]1Nc1nc2ccc(F)cc2s1)c1ccccc1-n1cccn1 [Example 35, N-[(1S,2S)-2-[(6-Fluoro-1,3-benzothiazol-2-yl)amino]cyclopentyl]-2-(1H-pyrazol-1-yl)benzamide]
26 | 8.33 | 5.96 | COc1cccc(OC)c1C(=O)N(C)[C@H]1CCC[C@@H]1Nc1nc2ccc(F)cc2s1 [Example 34, N-[(1S,2S)-2-[(6-Fluoro-1,3-benzothiazol-2-yl)amino]cyclopentyl]-2,6-dimethoxy-N-methylbenzamide]
